This note sets out measurements from patent US10981926B2 (Janssen Pharmaceutica NV, priority 2016, dated 2021).

Like-named read-outs stand apart in the source and are kept apart here. Where only a bound is given, the exact number is not on record here.

What is called IC50 is the concentration that gives 50% inhibition. The term Ki denotes a measure of affinity in units of concentration, obtained from inhibition or displacement. A lower Ki goes with higher affinity. The term Emax denotes the greatest response seen or fitted, relative to the assay's reference.

Assay [1] concerns the target AR (human) (Homo sapiens (Human), UniProt P10275, T878A). The experiment in a line: Radioligand binding to AR. The note with it: [3H]methyltrienolone, LNCaP cells (cytosol). The procedure:
Radioligand binding assays were performed with the cell extracts and ligands as detailed below. Complete methodology is contained within the cited publications. Kd values were determined by Non-Specific Incubation Detection Method.
AR (human) (agonist radioligand) LNCaP cells (cytosol)
[^3H]methyltrienolone 1 nM 0.8 nM mibolerone (1 μM) 24 h 4° C. Scintillation counting.
The results are expressed as a percent of control specific binding measured specific binding*100 control specific binding and as a percent inhibition of control specific binding 100-(measured specific binding*100) control specific binding obtained in the presence of compound.
The IC50 values (concentration causing a half-maximal inhibition of control specific binding) and Hill coefficients (nH) were determined by non-linear regression analysis of the competition curves generated with mean replicate values using Hill equation curve fitting. Y=D+[A−D] 1+(C/C50)nH
wherein Y=specific binding, A=left asymptote of the curve, D=right asymptote of the curve, C=compound concentration, C50=IC50, and nH=slope factor. […]
The inhibition constants (Ki) were calculated using the Cheng Prusoff equation: Ki=[…]
Radioligand binding inhibition and affinity calculations were determined using [^3H]-methyltrienolone, [^3H]-dexamethasone and [^3H]-estradiol for AR, GR and ER, respectively. […]

The target in assay [2] is wild-type Androgen Receptor (AR-wt) (Homo sapiens (Human), UniProt P10275). The experiment in a line: LNCaP-AR-wt ANT reporter assay (antagonist mode). It counts as cell-based.
wild-type Androgen Receptor (AR-wt), sequence (P10275 whole entry): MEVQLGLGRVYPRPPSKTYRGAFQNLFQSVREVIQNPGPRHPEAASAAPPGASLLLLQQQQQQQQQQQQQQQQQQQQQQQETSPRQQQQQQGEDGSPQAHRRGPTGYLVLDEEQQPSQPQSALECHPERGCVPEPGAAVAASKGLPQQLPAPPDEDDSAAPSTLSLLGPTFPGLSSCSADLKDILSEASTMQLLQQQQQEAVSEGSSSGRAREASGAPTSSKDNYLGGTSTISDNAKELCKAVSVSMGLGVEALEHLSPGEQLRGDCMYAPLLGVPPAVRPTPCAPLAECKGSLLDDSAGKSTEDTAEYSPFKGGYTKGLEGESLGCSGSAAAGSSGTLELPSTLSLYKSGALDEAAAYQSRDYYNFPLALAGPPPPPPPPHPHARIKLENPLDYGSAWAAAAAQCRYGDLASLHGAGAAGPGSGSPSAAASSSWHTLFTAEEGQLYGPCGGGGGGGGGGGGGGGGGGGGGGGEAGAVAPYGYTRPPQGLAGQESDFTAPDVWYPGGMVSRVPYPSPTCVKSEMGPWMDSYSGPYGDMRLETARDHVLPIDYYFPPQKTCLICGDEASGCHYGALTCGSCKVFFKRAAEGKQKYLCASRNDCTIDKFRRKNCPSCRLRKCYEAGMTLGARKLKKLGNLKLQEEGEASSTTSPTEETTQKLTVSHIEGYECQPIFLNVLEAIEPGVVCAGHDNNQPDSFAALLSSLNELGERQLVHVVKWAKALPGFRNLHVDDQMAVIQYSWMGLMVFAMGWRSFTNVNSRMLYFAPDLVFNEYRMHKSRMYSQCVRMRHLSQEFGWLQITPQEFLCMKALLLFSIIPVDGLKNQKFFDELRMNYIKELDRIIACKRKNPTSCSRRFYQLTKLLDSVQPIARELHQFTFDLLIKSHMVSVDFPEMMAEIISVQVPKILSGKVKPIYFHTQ
The target in assay [3] is F876L mutant Androgen Receptor (AR-F876L) (Homo sapiens (Human), UniProt P10275, F877L). Briefly: LNCaP-AR-F876L AG reporter assay (agonist mode). It is filed as cell-based. In general terms: In a reporter assay the amount or activity of a reporter protein is the signal.
F876L mutant Androgen Receptor (AR-F876L), sequence (P10275 whole entry F877L): as the sequence (P10275 whole entry) above, with F877L counted along it
Assay [4] has as its target AR L701H (Homo sapiens, UniProt P10275, L702H). Briefly: Luciferase Transcriptional Reporter Assay, AR L701H (HepG2). It counts as cell-based. The procedure:
(§1) HepG2 cells were maintained in EMEM supplemented with 10% FBS. One day before transfection, the media was changed to EMEM with 10% CSS. T-150 flasks were transiently transfected using 120 μL Lipofectamine 2000 (Life Technologies), 30 μg mutant cDNA (expression vector)—mutant cDNA tested were L701H, T877A, W741C and H874Y—and 40 μg 4×ARE-Luciferase (reporter vector) in OptiMEM and the flasks were incubated overnight. Cells were then trypsinized, counted and resuspended at 500,000 cells/mL. For agonist mode, the compounds of Formula (I) were serially diluted and 50 μL of the compound was added per well. 50 μL of the cells were added to each well and incubated for 48 hours. For antagonist mode, a final concentration of 90 pM R1881 was added to the diluted compounds and incubated for 48 hours. The plates were then assayed using SteadyGlo and read on the Envision. Percent Stimulation and Inhibition were determined and analyzed using GraphPad Prism.
(§2) F876L agonism was evident at 3 and 10 μM (5%) but zero at 30 μM. The antagonistic (IC50) and agonistic (EC50) values for each of the AR cDNA used in the reporter assays are summarized. All values are calculated relative to the activity of R1881 induced androgen receptor activity (n≥3). Also indicated are the maximal inhibition and extent of induction of androgen dependent signaling (%).

Assay [5] deals with AR T877A (Homo sapiens (Human), UniProt P10275, T878A). Briefly: Luciferase Transcriptional Reporter Assay, AR T877A (HepG2). It counts as cell-based. The procedure: as §1, §2
AR T877A, sequence (P10275 whole entry T878A): as the sequence (P10275 whole entry) above, with T878A counted along it
The target of assay [6] is AR W741C (Homo sapiens (Human), UniProt P10275, W742C). The experiment in a line: Luciferase Transcriptional Reporter Assay, AR W741C (HepG2). It is filed as cell-based. The procedure:
as §1, §2

Assay [7] concerns the target AR H874Y (Homo sapiens (Human), UniProt P10275, H875Y). The experiment in a line: Luciferase Transcriptional Reporter Assay, AR H874Y (HepG2). It counts as cell-based. The procedure:
as §1, §2

In assay [8] the target is F876L-VP16 (Homo sapiens (Human), UniProt P10275, F877L). Briefly: AR-VP16 DNA Binding Assay (VP16 F876L). It is filed as cell-based. The note with it: HepG2, antagonist mode, 1 nM R1881, 48 hours. The procedure: HepG2 cells were maintained in EMEM supplemented with 10% FBS. One day before transfection, the media was changed to EMEM with 10% CSS. T-150 flasks were transiently transfected using 120 μL Lipofectamine 2000 (Life Technologies), 24.5 μg AR-VP16 or F876L-VP16 (expression vector) and 49 μg 4×ARE-Luciferase (reporter vector) in OptiMEM and the flasks were incubated overnight. Cells were then trypsinized, counted and resuspended at 500,000 cells/mL. For agonist mode, the compounds were serially diluted and 50 μL of the compound was added per well. 50 μL of the cells were added to each well and incubated for 48 hours. For antagonist mode, a final concentration of 90 pM (VP16 AR) or 1 nM (VP16 F876L) R1881 was added to the plate and incubated for 48 hours. The plates were then assayed using SteadyGlo and read on the Envision. Percent Stimulation and Inhibition were determined and analyzed using GraphPad Prism.
F876L-VP16, sequence (P10275 whole entry F877L): as the sequence (P10275 whole entry) above, with F877L counted along it

AR W741C, sequence (P10275 whole entry W742C): as the sequence (P10275 whole entry) above, with W742C counted along it
AR H874Y, sequence (P10275 whole entry H875Y): as the sequence (P10275 whole entry) above, with H875Y counted along it
AR L701H, sequence (P10275 whole entry L702H): as the sequence (P10275 whole entry) above, with L702H counted along it
AR (human), sequence (P10275 whole entry T878A): as the sequence (P10275 whole entry) above, with T878A counted along it

For the molecule `N#Cc1ncc(N2C(=O)C3(CCC3)N(c3ccc(OC4CCNCC4)nc3)C2=S)cc1C(F)(F)F` [Cpd 43, 5-[5-oxo-8-[6-(4-piperidyloxy)-3-pyridyl]-7-thioxo-6,8-diazaspiro[3.4]octan-6-yl]-3-(trifluoromethyl)pyridine-2-carbonitrile], the half-maximal inhibitory concentration (IC50) in assay [1] turned out to be 6.9 nM; in assay [4] (HepG2, antagonist mode, 90 pM R1881, 48 hours, read-out: Antagonism IC50, AR construct L701H), 10000 nM; in assay [5] (HepG2, antagonist mode, 90 pM R1881, 48 hours, read-out: Antagonism IC50, AR construct T877A), 6810 nM; in assay [6] (HepG2, antagonist mode, 90 pM R1881, 48 hours, read-out: Antagonism IC50, AR construct W741C) it was 12300 nM; in assay [7] (HepG2, antagonist mode, 90 pM R1881, 48 hours, read-out: Antagonism IC50, AR construct H874Y), 16800 nM; in assay [8], 15 nM. The molecule further displayed a Ki in assay [1] (Cheng Prusoff) of 3 nM. In assay [2] (antagonist mode, pIC50 = −Log10(IC50 in Molar)), the “LNCaP-AR-wt ANT pIC50” value was 7.27. Further, the “LNCaP-AR-wt ANT MAX % Inh” value in assay [2] (maximum % inhibition of R1881 control response over the tested concentration range) is 101.1%. For the same molecule, the EC50 in assay [3] (agonist mode, pEC50 = −Log10(EC50 in Molar), read-out: LNCaP-AR-F876L AG pEC50 (converted)) was greater than 15100 nM; in assay [5] (HepG2, agonist mode, 48 hours, read-out: Agonism EC50, AR construct T877A), 2290 nM; in assay [6] (HepG2, agonist mode, 48 hours, read-out: Agonism EC50, AR construct W741C), 2830 nM. Also, in assay [3] (maximum % stimulation (agonist response) over the tested concentration range), the “LNCaP-AR-F876L AG MAX % Stim” value amounted to 0.1%. In addition, the Emax was 0% in assay [4] (HepG2, agonist mode, relative to R1881, read-out: Agonism % Emax, AR construct L701H); 90% in assay [4] (HepG2, antagonist mode, maximal inhibition, read-out: Antagonism % Emax, AR construct L701H); 10% in assay [5] (HepG2, agonist mode, relative to R1881, read-out: Agonism % Emax, AR construct T877A); 80% in assay [5] (HepG2, antagonist mode, maximal inhibition, read-out: Antagonism % Emax, AR construct T877A); 0% in assay [6] (HepG2, agonist mode, relative to R1881, read-out: Agonism % Emax, AR construct W741C); 85% in assay [6] (HepG2, antagonist mode, maximal inhibition, read-out: Antagonism % Emax, AR construct W741C). In addition, the Emax stood at 0% in assay [7] (HepG2, agonist mode, relative to R1881, read-out: Agonism % Emax, AR construct H874Y) and 80% in assay [7] (HepG2, antagonist mode, maximal inhibition, read-out: Antagonism % Emax, AR construct H874Y).
